Measured values taken from US9180111B2, “Reduction in complement activation and inflammation during tissue injury by carotenoids, carotenoid analogs, or derivatives thereof” (Cardax Pharma, Inc., priority 2005, dated 2015).

Assays:
[1] = biological target: human serum albumin (HSA) (Homo sapiens, UniProt P02768); test: Plasma-protein binding studies in vitro
[2] = Determination of aqueous solubility/dispersibility; assay type: physicochemical
Procedure: (§1) 30.13 mg of 3 was added to 1 mL of USP-purified water. The sample was rotated for 2 hours, then centrifuged for 5 minutes. After centrifuging, solid was visible in the bottom of the tube. A 125-μL aliquot of the solution was then diluted to 25 mL. The sample was analyzed by UV/Vis spectroscopy at 436 nm, and the absorbance was compared to a standard curve compiled from 4 standards of known concentration. The concentration of the original supernatant was calculated to be 2.85 mg/mL and the absorptivity was 36.94 AU*mL/cm*mg. Slight error may have been introduced by the small size of the original aliquot.
as §1, with “Next, 30.80” for “30.13”, “9” for “3”, “411” for “436”, “29.27” for “2.85”, “2.90” for “36.94”

human serum albumin (HSA), sequence (P02768 25-609): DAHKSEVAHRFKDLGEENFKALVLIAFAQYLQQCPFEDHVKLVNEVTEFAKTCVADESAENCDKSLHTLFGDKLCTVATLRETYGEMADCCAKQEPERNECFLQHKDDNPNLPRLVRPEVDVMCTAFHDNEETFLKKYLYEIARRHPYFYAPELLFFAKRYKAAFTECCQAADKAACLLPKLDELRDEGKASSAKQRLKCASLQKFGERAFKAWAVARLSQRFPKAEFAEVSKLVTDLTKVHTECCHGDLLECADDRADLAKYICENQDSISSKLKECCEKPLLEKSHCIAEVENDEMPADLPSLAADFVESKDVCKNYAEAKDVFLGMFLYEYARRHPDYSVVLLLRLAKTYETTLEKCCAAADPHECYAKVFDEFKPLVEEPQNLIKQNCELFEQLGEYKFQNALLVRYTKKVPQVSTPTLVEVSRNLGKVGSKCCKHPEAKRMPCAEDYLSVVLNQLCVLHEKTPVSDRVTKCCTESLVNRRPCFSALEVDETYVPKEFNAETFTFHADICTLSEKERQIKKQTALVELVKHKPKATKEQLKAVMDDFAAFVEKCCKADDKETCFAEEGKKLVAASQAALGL

SMILES | binding to human serum albumin [1] | solubility in water [2]
CC1=C(/C=C/C(C)=C/C=C/C(C)=C/C=C/C=C(C)/C=C/C=C(C)/C=C/C2=C(C)C(=O)C(OC(=O)CCC(=O)O)CC2(C)C)C(C)(C)CC(OC(=O)CCC(=O)O)C1=O [meso-(3R,3S)-disodium disuccinate astaxanthin derivative] | bound immediately and preferentially to human serum albumin | 
CC1=C(/C=C/C(C)=C/C=C/C(C)=C/C=C/C=C(C)/C=C/C=C(C)/C=C/C2=C(C)C(=O)[C@@H](O)CC2(C)C)C(C)(C)C[C@H](O)C1=O [astaxanthin, reference compound] |  | insoluble in water
